Experimental data: US11180474B2 (BRISTOL-MYERS SQUIBB COMPANY, priority 2016, dated 2021)
pIC50: −log10 of the molar value. Structures can show the parent of a compound that is named as a salt.

target: T1, human TLR7 (Homo sapiens, UniProt Q9NYK1); test: TLR7 inhibition reporter assay (HEK-Blue cells, SEAP reporter, gardiquimod stimulation); type: cell-based; details: HEK-Blue cells overexpressing human TLR7, gardiquimod 7.5 μM
T1 construct: host or cells: HEK-Blue cells
T1 sequence (Q9NYK1 27-1049): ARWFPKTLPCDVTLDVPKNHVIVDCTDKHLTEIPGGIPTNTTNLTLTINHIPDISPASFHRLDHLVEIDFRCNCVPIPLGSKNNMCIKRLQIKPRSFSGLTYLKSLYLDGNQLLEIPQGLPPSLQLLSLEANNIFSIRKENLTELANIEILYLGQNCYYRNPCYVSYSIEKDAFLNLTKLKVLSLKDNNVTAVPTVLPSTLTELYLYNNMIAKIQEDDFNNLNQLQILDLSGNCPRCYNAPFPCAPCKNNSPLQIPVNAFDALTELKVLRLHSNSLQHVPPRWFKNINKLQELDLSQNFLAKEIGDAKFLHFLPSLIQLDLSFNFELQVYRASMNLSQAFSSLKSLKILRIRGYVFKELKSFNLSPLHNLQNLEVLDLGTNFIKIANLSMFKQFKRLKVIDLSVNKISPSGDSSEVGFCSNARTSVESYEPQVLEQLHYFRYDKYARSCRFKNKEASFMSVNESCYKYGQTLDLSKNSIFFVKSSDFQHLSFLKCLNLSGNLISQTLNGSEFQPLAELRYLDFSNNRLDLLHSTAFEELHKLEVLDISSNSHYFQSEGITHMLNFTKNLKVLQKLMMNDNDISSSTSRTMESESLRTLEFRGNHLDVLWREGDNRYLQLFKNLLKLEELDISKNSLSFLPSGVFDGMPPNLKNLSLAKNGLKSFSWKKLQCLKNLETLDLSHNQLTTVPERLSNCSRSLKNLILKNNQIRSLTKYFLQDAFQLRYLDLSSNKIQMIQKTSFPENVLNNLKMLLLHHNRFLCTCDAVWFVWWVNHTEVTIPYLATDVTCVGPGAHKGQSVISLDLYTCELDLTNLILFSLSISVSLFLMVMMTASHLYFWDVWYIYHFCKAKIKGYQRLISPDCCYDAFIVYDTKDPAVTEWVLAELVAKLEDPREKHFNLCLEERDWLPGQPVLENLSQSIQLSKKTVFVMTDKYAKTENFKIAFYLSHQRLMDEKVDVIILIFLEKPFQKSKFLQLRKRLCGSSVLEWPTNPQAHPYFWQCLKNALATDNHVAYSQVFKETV
Summary of the method: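 In this cell reporter format, test compounds at 0.05 nM-50 μM final incubate 22 h with seeded cells (TLR7 15000, TLR8 20,000 per well). SEAP read-out by HEK-Blue Detection medium yields % inhibition relative to agonist/DMSO and known-inhibitor wells.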

SMILES	pIC50
CCc1c(-c2ccc(OC)c(OC)c2)[nH]c2ccc(C3CCN(C(=O)CN4CC[C@@H](O)C4)CC3)cc12 [Example 173, (R)-1-(4-(2-(3,4-dimethoxyphenyl)-3-ethyl-1H-indol-5-yl)piperidin-1-yl)-2-(3-hydroxypyrrolidin-1-yl)ethan-1-one]	7.37
COc1ccc(-c2[nH]c3ccc(C4CCN(C(=O)CNCC(C)O)CC4)cc3c2C(C)C)cc1OC (stereo not shown) [Example 210, 1-(4-(2-(3,4-dimethoxyphenyl)-3-isopropyl-1H-indol-5-yl)piperidin-1-yl)-2-((2-hydroxypropyl)amino)ethan-1-one]	7.89
COc1ccc(-c2[nH]c3ccc(C4CCN(C5CCN(CC6CC6)CC5)CC4)cc3c2C(C)C)cc1OC [Example 198, 5-(1′-(cyclopropylmethyl)-[1,4′-bipiperidin]-4-yl)-2-(3,4-dimethoxyphenyl)-3-isopropyl-1H-indole di trifluoroacetic acid]	6.42
COc1ccc(-c2[nH]c3ccc(C4CCN(C5CCN(C6CCCC6)CC5)CC4)cc3c2C(C)C)cc1OC [Example 202, 5-(1′-cyclopentyl-[1,4′-bipiperidin]-4-yl)-2-(3,4-dimethoxyphenyl)-3-isopropyl-1H-indole]	6.81
CCc1c(-c2ccc(OC)c(OC)c2)[nH]c2ccc(C3CCN(C4CCN(C5CCCC5)CC4)CC3)cc12 [Example 152, 5-(1′-cyclopentyl-[1,4′-bipiperidin]-4-yl)-2-(3,4-dimethoxyphenyl)-3-ethyl-1H-indole]	6.23
CNCCN1CCC(c2cc3c(C(C)C)c(-c4ccc(OC)c(OC)c4)[nH]c3cc2F)CC1 [Example 208, 2-(4-(2-(3,4-dimethoxyphenyl)-6-fluoro-3-isopropyl-1H-indol-5-yl)piperidin-1-yl)-N-methylethan-1-amine]	8.05
CCc1c(-c2ccc(OC)c(OC)c2)[nH]c2c(F)cc(C3CCNCC3)cc12 [Example 189, 2-(3,4-dimethoxyphenyl)-3-ethyl-7-fluoro-5-(piperidin-4-yl)-1H-indole]	6.37
COc1ccc(-c2[nH]c3ccc(C4CCN(C(=O)CNC5CCC(N(C)C)CC5)CC4)cc3c2C(C)C)cc1OC (stereo not shown) [Example 215, 1-(4-(2-(3,4-dimethoxyphenyl)-3-isopropyl-1H-indol-5-yl)piperidin-1-yl)-2-((4-(dimethylamino)cyclohexyl)amino)ethan-1-one]	7.44
COc1ccc(-c2[nH]c3ccc(C4CCNCC4)cc3c2C(C)C)cc1OC [Example 194, 2-(3,4-dimethoxyphenyl)-3-isopropyl-5-(piperidin-4-yl)-1H-indole hydrochloride]	7.14
CCc1c(-c2ccc(OC)c(OC)c2)[nH]c2c(F)cc(C3CCN(CCNC)CC3)cc12 [Example 191, 2-(4-(2-(3,4-dimethoxyphenyl)-3-ethyl-7-fluoro-1H-indol-5-yl)piperidin-1-yl)-N-methylethan-1-amine]	5.92
CCc1c(-c2ccc(OC)c(OC)c2)[nH]c2ccc(C3CCN(C4CCN(Cc5ccccc5)CC4)CC3)cc12 [Example 147, 5-(1′-benzyl-[1,4′-bipiperidin]-4-yl)-2-(3,4-dimethoxyphenyl)-3-ethyl-1H-indole]	6.53
CCc1c(-c2ccc(OC)c(OC)c2)[nH]c2ccc(C3CCN(C(=O)C4CCNCC4)CC3)cc12 [Example 186, (4-(2-(3,4-dimethoxyphenyl)-3-ethyl-1H-indol-5-yl)piperidin-1-yl)(piperidin-4-yl) methanone]	7.02
CCc1c(-c2ccc(OC)c(OC)c2)[nH]c2ccc(C3CCN(C(=O)CN4CCCC(C(=O)N(CC)CC)C4)CC3)cc12 (single isomer, unassigned) [Example 178, 1-(2-(4-(2-(3,4-dimethoxyphenyl)-3-ethyl-1H-indol-5-yl)piperidin-1-yl)-2-oxoethyl)-N,N-diethylpiperidine-3-carboxamide]	6.32
COc1ccc(-c2[nH]c3ccc(C4CCN(C5CCN(C)CC5)CC4)cc3c2C(C)C)cc1OC [Example 200, 2-(3,4-dimethoxyphenyl)-3-isopropyl-5-(1′-methyl-[1,4′-bipiperidin]-4-yl)-1H-indole]	7.00
CCc1c(-c2ccc(OC)c(OC)c2)[nH]c2ccc(C3CCN(C(=O)CNCCO)CC3)cc12 [Example 159, 1-(4-(2-(3,4-dimethoxyphenyl)-3-ethyl-1H-indol-5-yl)piperidin-1-yl)-2-((2-hydroxyethyl)amino) ethan-1-one]	7.38
CNCCN1CCC(c2ccc3[nH]c(-c4ccc(OC)c(OC)c4)c(CC(C)C)c3c2)CC1 [Example 116, trifluoroacetic acid]	5.89
CCc1c(-c2ccc(OC)c(OC)c2)[nH]c2cc(C)c(C3CCN(CCNC)CC3)cc12 [Example 188, 2-(4-(2-(3,4-dimethoxyphenyl)-3-ethyl-6-methyl-1H-indol-5-yl)piperidin-1-yl)-N-methylethanamine-di-trifluoroacetic acid]	7.15
COc1ccc(-c2[nH]c3ccc(C4CCN(C(=O)CNC(CO)CO)CC4)cc3c2C(C)C)cc1OC [Example 220, 2-((1,3-dihydroxypropan-2-yl)amino)-1-(4-(2-(3,4-dimethoxyphenyl)-3-isopropyl-1H-indol-5-yl)piperidin-1-yl)ethan-1-one]	7.60
CCc1c(-c2ccc(OC)c(OC)c2)[nH]c2ccc(C3CCN(C4CCN(Cc5ccc(C)s5)CC4)CC3)cc12 [Example 140, 2-(3,4-dimethoxyphenyl)-3-ethyl-5-(1′-((5-methylthiophen-2-yl)methyl)-[1,4′-bipiperidin]-4-yl)-1H-indole]	5.99
CCc1c(-c2ccc(OC)c(OC)c2)[nH]c2ccc(C3CCN(C(=O)CNCC#N)CC3)cc12 [Example 161, 2-((2-(4-(2-(3,4-dimethoxyphenyl)-3-ethyl-1H-indol-5-yl)piperidin-1-yl)-2-oxoethyl)amino)acetonitrile]	5.92
CCc1c(-c2ccc(OC)c(OC)c2)[nH]c2ccc(C3CCN(C4CCN(Cc5c(C)noc5C)CC4)CC3)cc12 [Example 138, 4-((4-(2-(3,4-dimethoxyphenyl)-3-ethyl-1H-indol-5-yl)-[1,4′-bipiperidin]-1′-yl)methyl)-3,5-dimethylisoxazole]	5.45
CCc1c(-c2ccc(OC)c(OC)c2)[nH]c2ccc(C3CCN(C(=O)CN4CCCC(C(=O)O)C4)CC3)cc12 (racemic) [Example 176, 1-(2-(4-(2-(3,4-dimethoxyphenyl)-3-ethyl-1H-indol-5-yl)piperidin-1-yl)-2-oxoethyl)piperidine-3-carboxylic acid]	5.05
CCc1c(-c2ccc(OC)c(OC)c2)[nH]c2ccc(C3CCN(C4CCN(Cc5coc(C)n5)CC4)CC3)cc12 [Example 126, 4-((4-(2-(3,4-dimethoxyphenyl)-3-ethyl-1H-indol-5-yl)-[1,4′-bipiperidin]-1′-yl)methyl)-2-methyloxazole]	6.04
CCc1c(-c2ccc(OC)c(OC)c2)[nH]c2ccc(C3CCN(C(=O)CN(C)C)CC3)cc12 [Example 181, 1-(4-(2-(3,4-dimethoxyphenyl)-3-ethyl-1H-indol-5-yl)piperidin-1-yl)-2-(dimethylamino) ethanone]	7.28
CCc1c(-c2ccc(OC)c(OC)c2)[nH]c2c(F)cc(C3CCN(C4CCN(CC(C)C)CC4)CC3)cc12 [Example 190, 2-(3,4-dimethoxyphenyl)-3-ethyl-7-fluoro-5-(1′-isobutyl-[1,4′-bipiperidin]-4-yl)-1H-indole]	6.23
CCc1c(-c2ccc(OC)c(OC)c2)[nH]c2ccc(C3CCN(C4CCN(Cc5cc(C)nn5C)CC4)CC3)cc12 [Example 132, 2-(3,4-dimethoxyphenyl)-5-(1′-((1,3-dimethyl-1H-pyrazol-5-yl)methyl)-[1,4′-bipiperidin]-4-yl)-3-ethyl-1H-indole]	≤ 4.30
CCc1c(-c2ccc(OC)c(OC)c2)[nH]c2ccc(C3CCN(C4CCN(Cc5cc(C)n(C)n5)CC4)CC3)cc12 [Example 144, 2-(3,4-dimethoxyphenyl)-5-(1′-((1,5-dimethyl-1H-pyrazol-3-yl)methyl)-[1,4′-bipiperidin]-4-yl)-3-ethyl-1H-indole]	6.33
COc1ccc(-c2[nH]c3ccc(C4CCN(C(=O)CNCCO)CC4)cc3c2C(C)C)cc1OC [Example 212, 1-(4-(2-(3,4-dimethoxyphenyl)-3-isopropyl-1H-indol-5-yl)piperidin-1-yl)-2-((2-hydroxyethyl)amino)ethan-1-one]	7.89
